# Data published in PubChem BioAssay AID1259408 (Genetic Toxicology Data Bank (GENE-TOX), 2018).
# Active and inactive are the calls of the source. No rule for the calls is given here.
# Test system: GENE-TOX genotoxicity assays, various organisms and cells
# Experiment: GENE-TOX mutagenicity studies
# Settings: for call: Assay Type: In vivo carcinogenicity studies
# [1] = Species/Cell Type: Bacillus subtilis (H17 vs M45), Assay Type: Rec-assay, spot test, DNA effects (bacterial DNA repair), Assay Code: REWT, Evaluation Type: Evaluation A (Pre-1980)
# [2] = Species/Cell Type: Chinese hamster ovary (CHO) cells, Assay Type: Forward gene mutation at the HPRT locus, Assay Code: CHO+, Evaluation Type: Evaluation B (Post-1980)
# [3] = Species/Cell Type: Drosophila melanogaster, Assay Type: Sex-linked recessive lethal gene mutation, Assay Code: SRL+, Evaluation Type: Evaluation A (Pre-1980)
# [4] = Species/Cell Type: Human diploid fibroblasts, Assay Type: Unscheduled DNA synthesis (UDS) in vitro, DNA effects, Assay Code: UDH-, Evaluation Type: Evaluation A (Pre-1980)
# [5] = Species/Cell Type: Salmonella typhimurium (one or more of the five standard strains: TA98, TA100, TA1535, TA1537, and TA1538), Assay Type: Histidine reverse gene mutation, Ames assay, Assay Code: SAL+, Evaluation Type: Evaluation A (Pre-1980)
# [6] = Species/Cell Type: Salmonella typhimurium, Assay Type: Forward and reverse gene mutation, host-mediated assay, Assay Code: HMA-, Evaluation Type: Evaluation A (Pre-1980)
# [7] = Species/Cell Type: Nonhuman, Assay Code: CCG+, Evaluation Type: Evaluation A (Pre-1980)
# [8] = Species/Cell Type: Nonhuman, Assay Code: CCGT, Evaluation Type: Evaluation A (Pre-1980)
# [9] = Species/Cell Type: Nonhuman, Assay Type: Sister-chromatid exchange (SCE) in vitro, Assay Code: SC2-, Evaluation Type: Evaluation B (Post-1980)
# [10] = Species/Cell Type: Syrian hamster embryo (SHE) cells, Assay Type: Cell transformation, clonal assay, Assay Code: CTC+, Evaluation Type: Evaluation A (Pre-1980)
# [11] = Species/Cell Type: Salmonella typhimurium (one or more of the five standard strains: TA98, TA100, TA1535, TA1537, and TA1538), Assay Type: Histidine reverse gene mutation, Ames assay, Assay Code: SAL+*, Activation: With metabolic activation, Evaluation Type: Evaluation A (Pre-1980)
# [12] = Species/Cell Type: Nonhuman, Assay Type: Sister-chromatid exchange (SCE) in vitro, Assay Code: SC2+D*, Activation: With metabolic activation, Dose Response: With dose response, Evaluation Type: Evaluation B (Post-1980)
# [13] = Species/Cell Type: Chinese hamster lung (V79) cells, Assay Type: Forward gene mutation at the HPRT or ouabain locus, Assay Code: V79+, Evaluation Type: Evaluation A (Pre-1980)
# [14] = Species/Cell Type: Escherichia coli polA (W3119 vs P3478), Assay Type: Rec-assay, DNA effects (bacterial DNA repair), Assay Code: RE1T, Evaluation Type: Evaluation A (Pre-1980)
# [15] = Species/Cell Type: Nonhuman, Assay Code: CCG+L, Evaluation Type: Evaluation A (Pre-1980)
# [16] = Species/Cell Type: Saccharomyces cerevisiae, Assay Type: Mitotic recombination or gene conversion, Assay Code: YEH-, Evaluation Type: Evaluation A (Pre-1980)
# [17] = Species/Cell Type: Salmonella typhimurium (one or more of the five standard strains: TA98, TA100, TA1535, TA1537, and TA1538), Assay Type: Histidine reverse gene mutation, Ames assay, Assay Code: SALT, Evaluation Type: Evaluation A (Pre-1980)
# [18] = Species/Cell Type: Nonhuman, Assay Code: CCG-, Evaluation Type: Evaluation A (Pre-1980)
# [19] = Species/Cell Type: Nonhuman, Assay Type: Sister-chromatid exchange (SCE) in vitro, Assay Code: SC2+, Evaluation Type: Evaluation B (Post-1980)
# [20] = Species/Cell Type: Mammalian polychromatic erythrocytes, Assay Type: Micronucleus test, chromosome aberrations, Assay Code: MNTT, Evaluation Type: Evaluation A (Pre-1980)
# [21] = Species/Cell Type: Mouse, Sex: Male, Assay Type: Sperm morphology, Assay Code: SPI-, Evaluation Type: Evaluation A (Pre-1980)
# [22] = Species/Cell Type: Bacillus subtilis (H17 vs M45), Assay Type: Rec-assay, spot test, DNA effects (bacterial DNA repair), Assay Code: REW+, Evaluation Type: Evaluation A (Pre-1980)
structure (smiles),measurement,setting,value
O=C1c2ccccc2C(=O)N1SC(Cl)(Cl)Cl,mutagenic call,[1],no conclusion
same,mutagenic call,[2],active; positive
same,mutagenic call,[3],active; positive
same,mutagenic call,"Species/Cell Type: Escherichia coli WP2, Assay Type: Tryptophan reverse gene mutation, Assay Code: WP2+, Evaluation Type: Evaluation A (Pre-1980)",active; positive
same,mutagenic call,"Species/Cell Type: Escherichia coli WP2 UVRA, Assay Type: Tryptophan reverse gene mutation, Assay Code: WPU+/-*, Activation: With metabolic activation, Evaluation Type: Evaluation A (Pre-1980)","inactive; positive without activation, negative with activation"
same,mutagenic call,"Species/Cell Type: Escherichia coli polA (W3119 vs P3478), Assay Type: Rec-assay, DNA effects (bacterial DNA repair), Assay Code: RE1+, Evaluation Type: Evaluation A (Pre-1980)",active; positive
same,mutagenic call,[4],inactive; negative
same,mutagenic call,"Species/Cell Type: Rodents, Sex: Male, Assay Type: Dominant lethal test, Assay Code: DLTT, Evaluation Type: Evaluation A (Pre-1980)",no conclusion
same,mutagenic call,"Species/Cell Type: Saccharomyces cerevisiae, Assay Type: Mitotic recombination or gene conversion, Assay Code: YEC+, Evaluation Type: Evaluation A (Pre-1980)",active; positive
same,mutagenic call,"Species/Cell Type: Saccharomyces cerevisiae, Assay Type: Mitotic recombination or gene conversion, Assay Code: YEH+, Evaluation Type: Evaluation A (Pre-1980)",active; positive
same,mutagenic call,[5],active; positive
same,mutagenic call,[6],inactive; negative
C[C@]12CC[C@@H]3c4ccc(O)cc4CC[C@H]3[C@@H]1CCC2=O,call,[7],active; positive
C[As+](C)(C)CC(=O)[O-],mutagenic call,"Species/Cell Type: Nonhuman, Assay Type: Sister-chromatid exchange (SCE) in vitro, Assay Code: SC2T, Evaluation Type: Evaluation B (Post-1980)",no conclusion
CC(=O)[O-].CC(=O)[O-].[Cd+2],call,[8],no conclusion
same,mutagenic call,[9],inactive; negative
same,mutagenic call,"Species/Cell Type: Syrian hamster embryo (SA7/SHE) cells, Assay Type: Cell transformation, viral enhanced, Assay Code: CT7+, Evaluation Type: Evaluation A (Pre-1980)",active; positive
same,mutagenic call,[10],active; positive
COc1ccc2c3ccc(OC)cc3c3c4cc(OC)ccc4c4ccc(OC)cc4c3c2c1,mutagenic call,[11],active; positive
O=C(NO)c1ccccc1O,mutagenic call,[5],active; positive
CC(C)N(C(=O)SC/C(Cl)=C/Cl)C(C)C,mutagenic call,[12],active; positive
same,mutagenic call,[11],active; positive
COc1cc2c(c3oc(=O)c4c(c13)CCC4=O)[C@@H]1CCO[C@@H]1O2,mutagenic call,[1],no conclusion
same,mutagenic call,[13],active; positive
same,mutagenic call,"Species/Cell Type: Escherichia coli polA (W3110 vs P3478), Assay Type: Rec-assay, DNA effects (bacterial DNA repair), Assay Code: RE2-, Evaluation Type: Evaluation A (Pre-1980)",inactive; negative
same,mutagenic call,[14],no conclusion
same,mutagenic call,"Species/Cell Type: Human diploid fibroblasts, Assay Type: Unscheduled DNA synthesis (UDS) in vitro, DNA effects, Assay Code: UDH-*, Activation: With metabolic activation, Evaluation Type: Evaluation A (Pre-1980)",inactive; negative
same,call,[15],active; positive
same,mutagenic call,[12],active; positive
same,mutagenic call,"Species/Cell Type: Rat primary hepatocytes, Assay Type: Unscheduled DNA synthesis (UDS) in vitro, DNA effects, Assay Code: UDP-, Evaluation Type: Evaluation A (Pre-1980)",inactive; negative
same,mutagenic call,[16],inactive; negative
same,mutagenic call,[17],no conclusion
same,mutagenic call,[6],inactive; negative
same,mutagenic call,[10],active; positive
Cc1cnc2ccccc2c1,mutagenic call,[11],active; positive
CCOP(=S)(OCC)Oc1cc(C)nc(C(C)C)n1,mutagenic call,[1],no conclusion
same,mutagenic call,"Species/Cell Type: Escherichia coli WP2 UVRA, Assay Type: Tryptophan reverse gene mutation, Assay Code: WPU-*, Activation: With metabolic activation, Evaluation Type: Evaluation A (Pre-1980)",inactive; negative
same,mutagenic call,[14],no conclusion
same,mutagenic call,[4],inactive; negative
same,mutagenic call,"Species/Cell Type: Human, Assay Type: Sister-chromatid exchange (SCE) in vitro, Assay Code: SC1+, Evaluation Type: Evaluation B (Post-1980)",active; positive
same,call,[18],inactive; negative
same,mutagenic call,[19],active; positive
same,mutagenic call,[16],inactive; negative
same,mutagenic call,"Species/Cell Type: Salmonella typhimurium (one or more of the five standard strains: TA98, TA100, TA1535, TA1537, and TA1538), Assay Type: Histidine reverse gene mutation, Ames assay, Assay Code: SAL-, Evaluation Type: Evaluation A (Pre-1980)",inactive; negative
CN=[N+](C)[O-],mutagenic call,[3],active; positive
same,mutagenic call,"Species/Cell Type: Mouse (BALB/c-3T3) cells, Assay Type: Cell transformation, Assay Code: CTB-, Evaluation Type: Evaluation A (Pre-1980)",inactive; negative
same,call,[7],active; positive
same,mutagenic call,[11],active; positive
same,mutagenic call,"Species/Cell Type: Salmonella typhimurium, Assay Type: Forward and reverse gene mutation, host-mediated assay, Assay Code: HMA+, Evaluation Type: Evaluation A (Pre-1980)",active; positive
Cc1c2c(c(CO)c3ccc4ccccc4c13)[C@H](O)[C@@H](O)C=C2,mutagenic call,[13],active; positive
same,call,[8],no conclusion
Cc1ccc2c(ccc3cc4ccccc4cc32)c1,mutagenic call,[9],inactive; negative
same,mutagenic call,[11],active; positive
O=Nc1ccc2ccc3cccc4ccc1c2c34,mutagenic call,[2],active; positive
Cc1c2ccccc2c(C)c2ccccc12,mutagenic call,[20],no conclusion
same,mutagenic call,[21],inactive; negative
same,mutagenic call,[19],active; positive
same,mutagenic call,[11],active; positive
Cc1ccc2nc3ccccc3cc2c1,mutagenic call,"Species/Cell Type: Saccharomyces cerevisiae, Assay Type: Forward gene mutation, Assay Code: YEFT, Evaluation Type: Evaluation A (Pre-1980)",no conclusion
CN=[N+]([O-])Cc1ccc(C(=O)NC(C)C)cc1,mutagenic call,[19],active; positive
CCC(Br)(CC)C(=O)NC(N)=O,call,[18],inactive; negative
CC(=O)Oc1ccccc1C(=O)O,mutagenic call,[20],no conclusion
same,mutagenic call,[21],inactive; negative
C=C(C)C(=O)/C(=C\C(=O)O)OC,mutagenic call,[22],active; positive
same,call,[15],active; positive
same,mutagenic call,[16],inactive; negative
same,mutagenic call,[17],no conclusion
O=C(O)O,mutagenic call,[22],active; positive
same,mutagenic call,[14],no conclusion
CN(C)N=Nc1c(F)cc(F)cc1F,mutagenic call,[3],active; positive
O=c1[nH]cc[nH]1,mutagenic call,"Species/Cell Type: Drosophila melanogaster, Assay Type: Sex-linked recessive lethal gene mutation, Assay Code: SRLT, Evaluation Type: Evaluation A (Pre-1980)",no conclusion
c1ccncc1,mutagenic call,"Species/Cell Type: Mammalian polychromatic erythrocytes, Assay Type: Micronucleus test, chromosome aberrations, Assay Code: MNTT, Evaluation Type: Evaluation B (Post-1980)",no conclusion
same,mutagenic call,"Species/Cell Type: Nonhuman, Assay Type: Sister-chromatid exchange (SCE) in vitro, Assay Code: SC2+D, Dose Response: With dose response, Evaluation Type: Evaluation A (Pre-1980)",active; positive
CNC(=O)Oc1ccccc1OC(C)C,mutagenic call,[1],no conclusion
same,mutagenic call,"Species/Cell Type: Bacillus subtilis (H17 vs M45T), Assay Type: Rec-assay, spot test, DNA effects (bacterial DNA repair), Assay Code: REX-, Evaluation Type: Evaluation A (Pre-1980)",inactive; negative
same,mutagenic call,"Species/Cell Type: Escherichia coli WP2, Assay Type: Tryptophan reverse gene mutation, Assay Code: WP2-, Evaluation Type: Evaluation A (Pre-1980)",inactive; negative
same,mutagenic call,"Species/Cell Type: Saccharomyces cerevisiae, Assay Type: Mitotic recombination or gene conversion, Assay Code: YEC-, Evaluation Type: Evaluation A (Pre-1980)",inactive; negative
